Assay results published in patent US6933304B2, “Heteroarylalkanoic acids as integrin receptor antagonists” (Pharmacia Corporation, priority 2000, dated 2005).

Target: T1, Human vitronectin receptor αVβ3 (Homo sapiens, UniProt P05106+P06756)
T1 construct: Human vitronectin receptors αVβ3 and αVβ5 were purified from human placenta; from tissue; host or cells: human placenta
Test: Vitronectin adhesion assay (solid phase receptor assay)
Assay type: binding
Conditions: positive control included on each plate; read-out: IC50 αVβ3 antagonist (positive control)
Experimental: Human vitronectin receptors αVβ3 and αVβ5 were purified from human placenta as previously described [Pytela et al., Methods in Enzymology, 144:475-489 (1987)]. Human vitronectin was purified from fresh frozen plasma as previously described [Yatohgo et al., Cell Structure and Function, 13:281-292 (1988)]. Biotinylated human vitronectin was prepared by coupling NHS-biotin from Pierce Chemical Company (Rockford, Ill.) to purified vitronectin as previously described [Charo et al., J. Biol. Chem., 266(3):1415-1421 (1991)]. Assay buffer, OPD substrate tablets, and RIA grade BSA were obtained from Sigma (St. Louis, Mo.). Anti-biotin antibody was obtained from Sigma (St. Louis, Mo.). Nalge Nunc-Immuno microtiter plates were obtained from Nalge Company (Rochester, N.Y.).
This assay was essentially the same as previously reported [Niiya et al., Blood, 70:475-483 (1987)]. […] The plate was read with a microtiter plate reader at a wavelength of 450 nm and when the maximum-binding control wells reached an absorbance of about 1.0, the final A450 were recorded for analysis. The data were analyzed using a macro written for use with the EXCEL spreadsheet program. The mean, standard deviation, and % CV were determined for duplicate concentrations. […]

T1 sequence (P06756 31-889 limits assumed): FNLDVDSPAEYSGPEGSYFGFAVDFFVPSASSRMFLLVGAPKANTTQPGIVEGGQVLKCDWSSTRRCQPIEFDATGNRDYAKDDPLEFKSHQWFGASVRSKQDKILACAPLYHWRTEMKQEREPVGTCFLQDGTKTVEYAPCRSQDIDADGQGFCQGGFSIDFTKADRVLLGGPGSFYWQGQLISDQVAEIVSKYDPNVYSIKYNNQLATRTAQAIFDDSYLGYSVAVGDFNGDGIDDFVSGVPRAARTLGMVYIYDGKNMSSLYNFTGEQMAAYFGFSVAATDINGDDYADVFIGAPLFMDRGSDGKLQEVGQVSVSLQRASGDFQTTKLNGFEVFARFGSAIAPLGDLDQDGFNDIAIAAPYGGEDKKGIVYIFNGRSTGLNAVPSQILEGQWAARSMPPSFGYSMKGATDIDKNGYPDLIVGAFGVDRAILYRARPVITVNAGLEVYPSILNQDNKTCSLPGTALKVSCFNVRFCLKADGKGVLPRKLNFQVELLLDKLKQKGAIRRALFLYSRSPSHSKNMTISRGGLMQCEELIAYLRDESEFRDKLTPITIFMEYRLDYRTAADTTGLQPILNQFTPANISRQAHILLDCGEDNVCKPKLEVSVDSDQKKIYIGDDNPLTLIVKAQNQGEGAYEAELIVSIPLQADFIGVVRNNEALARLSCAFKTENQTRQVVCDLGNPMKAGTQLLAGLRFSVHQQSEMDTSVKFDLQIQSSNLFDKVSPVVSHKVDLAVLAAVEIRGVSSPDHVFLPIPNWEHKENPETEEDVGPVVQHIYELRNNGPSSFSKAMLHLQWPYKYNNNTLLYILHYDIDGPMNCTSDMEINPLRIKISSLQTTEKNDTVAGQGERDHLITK
T1 sequence (P06756 891-1048 partner limits assumed): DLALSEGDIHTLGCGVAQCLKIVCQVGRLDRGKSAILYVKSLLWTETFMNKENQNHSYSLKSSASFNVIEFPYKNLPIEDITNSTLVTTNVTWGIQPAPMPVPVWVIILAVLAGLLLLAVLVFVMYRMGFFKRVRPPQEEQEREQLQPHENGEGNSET
T1 sequence (P05106 27-788): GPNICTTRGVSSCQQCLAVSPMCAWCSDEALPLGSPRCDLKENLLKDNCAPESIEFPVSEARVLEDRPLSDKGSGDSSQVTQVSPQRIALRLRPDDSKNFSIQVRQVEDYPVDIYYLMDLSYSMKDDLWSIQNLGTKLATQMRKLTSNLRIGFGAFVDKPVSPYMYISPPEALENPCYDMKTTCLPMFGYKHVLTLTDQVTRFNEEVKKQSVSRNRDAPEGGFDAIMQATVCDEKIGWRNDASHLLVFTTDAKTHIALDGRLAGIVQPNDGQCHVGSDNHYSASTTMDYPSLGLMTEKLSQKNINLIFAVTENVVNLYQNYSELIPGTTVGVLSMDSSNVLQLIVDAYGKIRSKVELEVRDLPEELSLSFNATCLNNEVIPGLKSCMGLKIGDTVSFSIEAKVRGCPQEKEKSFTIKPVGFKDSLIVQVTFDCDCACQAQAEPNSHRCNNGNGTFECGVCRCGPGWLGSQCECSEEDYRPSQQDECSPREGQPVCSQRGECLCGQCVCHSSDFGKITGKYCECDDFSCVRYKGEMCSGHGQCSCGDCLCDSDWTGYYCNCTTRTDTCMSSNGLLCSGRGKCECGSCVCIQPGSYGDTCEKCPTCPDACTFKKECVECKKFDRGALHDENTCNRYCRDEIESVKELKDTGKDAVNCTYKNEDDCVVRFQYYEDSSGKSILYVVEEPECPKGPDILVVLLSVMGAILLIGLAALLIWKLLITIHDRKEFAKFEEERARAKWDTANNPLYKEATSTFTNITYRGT

## β-[[2-[[5-[(aminoiminomethyl)amino]-1-oxopentyl]amino]-1-oxoethyl]amino]-3-pyridinepropanoic acid
  IC50: 3 to 10 nM
